# Measurements published in US20140123342A1, “Regulation of Stomatal Apertures by Apyrases and Extracellular Nucleotides” (BOARD OF REGENTS, THE UNIVERSITY OF TEXAS SYSTEM, priority 2011, published 2014).
# System: guard cells of x-luc1 and x-luc9 ecto-luciferase lines
# Experiment: Ecto-luciferase luminescence imaging of extracellular ATP in epidermal peels
# Assay type: cell-based, Arabidopsis thaliana
# Conditions: 10 μM
# Text: Ecto-luciferase Construct and Plant Transformation: The nucleotide sequence for the 24 amino acid, cleavable signal peptide from the Brassica pollen coat protein, S-locus cysteine-rich protein (SCR13; AF195626) was used to target luciferase for secretion (Schopfer et al., 1999). The signal peptide was incorporated at the N-terminus of the luciferase gene by PCR and the SCR13 signal peptide modified luciferase PCR product was then ligated into the binary vector pLBJ21. This construct was then transformed into Agrobacterium tumefaciens strain GV3101 (pMP90) and then transformed into Arabidopsis plants (Col-0) using the floral dipping method (Clough and Bent, 1998). Transgenic plants were selected by planting on solidified Murashige and Skoog (MS) medium (4.3 g/L Murashige and Skoog salts (Sigma), 0.5% (w/v) MES, and 1.0% (w/v) agar, raised to pH 5.7 with 5 M KOH) containing 50 μg/mL kanamycin. Segregation of T3 generation on kanamycin plates was analysed in order to obtain homozygous lines. Plants showing kanamycin resistance were checked for luciferase activity by growing transgenic plants in MS medium for 10 days and then transferring the whole seedlings into test tubes. Luminescence measurements were performed by placing the test tubes in the light-tight housing of the luminometer reader (Dynatech). Experimental solutions with luciferin substrate with and without 1 mM ATP were injected by an automatic injector, and after 3 seconds counting started at 0.2 second time intervals.
# Imaging of Luminescence in Ecto-luciferase Plants: Ecto-luciferase seeds were surface-sterilized, stratified in the dark in 4° C. for at least three days and then planted directly on a cellophane membrane placed upon solidified MS with 1.0% (w/v) agar. Planted plates were placed upright in a culture chamber and grown at 23° C. under 24-h fluorescent light for 7 days. Plates were then reoriented so that the solidified MS medium was at the bottom of the plate and the seedling was able to grow up into the empty space of the petri dish. Seedlings were then allowed to mature for up to 4 weeks under identical temperature and light settings. For “dark” studies petri dishes of 3-4 week old plants were placed in a dark chamber for 24 hours prior to use in the studies.
# Mature basal leaves were excised from x-luc1 and x-luc9 plants 3-4 weeks old. Peels were taken and then immediately floated with the abaxial side up in 40 μL, of Arabidopsis leaf buffer on a microscope slide and the chemical being tested in either light or dark conditions depending on the experimental setup. The placing of the peels within their respective solution was considered time zero. Peels were treated for a minimum of 5 minutes before luciferin and flash buffer were added to the solution. […] Luminescence was integrated over 120 seconds, High Gain, Read Out set to slow, using 4×4 pixel binning with Cosmic Suppression on, Background Correction off, and Flatfield Correction off with the filter set to Photo.
# All luminescence analysis was conducted using the indiGO Analysis Software (version 2.0.0.26). All images consisted of a photographic image in grayscale with an overlaid luminescence image in pseudo color. […]
structure (smiles),measurement,setting,value
"CC1=CC(=O)CC(C)(C)[C@@]1(O)/C=C/C(C)=C\C(=O)O [ABA, abscisic acid]","ecto-luciferase luminescence in the location of stomata, average","5 min, x-luc9 peels, open stomata, light",3.57 cps
same,ecto-luciferase luminescence after return to control levels,after 15 min of continuous exposure,about 0.80 cps
